Our source for the Differentiation, IC50 and Optimal concentration values is ChEMBL document CHEMBL1122820, “Purine and 8-substituted purine arabinofuranosyl and ribofuranosyl nucleoside derivatives as potential inducers of the differentiation of the Friend erythroleukemia” (1985).

The structures appear in SMILES notation.

For experiment [1], the system named is Erythroleukemia cell line. Put plainly: Percent benzidine-positive cell differentiation in friend erythroleukemia cells. The class given is functional, Mus musculus.
Experiment [2] relates to Erythroleukemia cell line. The experiment is described as follows: Inhibition of Cellular Replication of friend erythroleukemia cells. The experiment is classed as functional. The note with it: Mus musculus, read-out: ID50 (the source's name).
Experiment [3] relates to Erythroleukemia cell line. Put plainly: Optimum concentration for differentiation of friend erythroleukemia cells. The class given is functional, Mus musculus.
Experiment [4] relates to Erythroleukemia cell line. Put plainly: Percent benzidine-positive cell differentiation of friend erythroleukemia cells was evaluated.(deoxy-coformycin added at 25 uM). The experiment is classed as functional, Mus musculus.
The test system of experiment [5] is Erythroleukemia cell line. The experiment is described as follows: Compound was evaluated for the inhibition of Cellular Replication (deoxy-coformycin added at 25 uM). The note with it: Mus musculus, read-out: ID50 (the source's name). The class given is functional.
Experiment [6] relates to Erythroleukemia cell line. The experiment is described as follows: Optimum concentration for the extent of differentiation of friend erythroleukemia cells was evaluated.(deoxy-coformycin added at 25 uM). The experiment is classed as functional, Mus musculus.
Experiment [7] has as its system Erythroleukemia cell line. Put plainly: Percent benzidine-positive cell differentiation of friend erythroleukemia cells was evaluated (deoxy-coformycin added at 25 uM). The class given is functional, Mus musculus.
In experiment [8] the test system is Erythroleukemia cell line. Put plainly: Percent benzidine-positive cells in friend erythroleukemia cells was evaluated (deoxy-coformycin added at 25 uM). The experiment is classed as functional, Mus musculus.

In experiment [1], `[N-]=[N+]=Nc1nc2c(O)ncnc2n1[C@@H]1O[C@H](CO)[C@@H](O)[C@@H]1O` yielded a Differentiation of 20%. Besides, the IC50 in experiment [2] was 860 µM. Moreover, the Optimal concentration in experiment [3] is given as 0.5 mM.

In experiment [1], `CN(C)c1nc2c(O)ncnc2n1[C@@H]1O[C@H](CO)[C@@H](O)[C@@H]1O` registered a Differentiation of 2%. Also, the IC50 in experiment [2] is greater than 8000 µM. Also, in experiment [3], the Optimal concentration was found to be 8 mM.

In the case of `O=c1[nH]c(=O)c2nc(O)n(C3O[C@H](CO)[C@@H](O)[C@H]3O)c2[nH]1` (stereo partly specified), in experiment [1], the Differentiation amounted to 3%. Further, the IC50 in experiment [2] is greater than 7000 µM. For the same compound, the Optimal concentration in experiment [3] was 7 mM.

In the case of `OC[C@H]1O[C@@H](n2cnc3c(O)nc(O)nc32)[C@H](O)[C@@H]1O` [XANTHOSINE], the IC50 in experiment [2] was greater than 7000 µM. The compound further displayed an Optimal concentration in experiment [3] of 7 mM.

For `OC[C@H]1O[C@@H](n2c(Br)nc3c(O)ncnc32)[C@H](O)[C@@H]1O`, the Differentiation in experiment [1] is 1%. For the same compound, the IC50 in experiment [2] was greater than 5000 µM. Moreover, the Optimal concentration in experiment [3] is recorded as 5 mM.

Consider `Nc1ncnc2c1nc(Br)n2[C@@H]1O[C@H](CO)[C@@H](O)[C@@H]1O`, for which the Differentiation in experiment [1] is 1%; in experiment [4], 2%. The values for the IC50 in experiment [5] and in experiment [2] were 850 µM and 1600 µM, respectively. Moreover, the Optimal concentration in experiment [6] is 0.8 mM; in experiment [3], 1.6 mM.

`[N-]=[N+]=Nc1nc2c(O)ncnc2n1[C@@H]1O[C@H](CO)[C@@H](O)[C@H]1O`: the Differentiation in experiment [1] is listed as 30%. For the same compound, the IC50 in experiment [2] amounted to 720 µM. For the same compound, in experiment [3], the Optimal concentration stood at 1 mM.

Take `Nc1nc2c(O)ncnc2n1[C@@H]1O[C@H](CO)[C@@H](O)[C@H]1O`: in experiment [1], the Differentiation was found to be 1%. The IC50 in experiment [2] was found to be 52 µM. In experiment [3], this compound came in with an Optimal concentration of 0.025 mM.

On to `Nc1ncnc2c1ncn2[C@@H]1O[C@H](CO)[C@@H](O)[C@@H]1O` [VIDARABINE], for which the figures for the Differentiation in experiment [1] and in experiment [7] were 4% and 22%, respectively. Besides, the IC50 is 3 µM in experiment [5] and 94 µM in experiment [2]. Also, the values for the Optimal concentration in experiment [6] and in experiment [3] were 0.002 mM and 0.08 mM, respectively.

Consider `CN(C)c1nc2c(O)ncnc2n1[C@@H]1O[C@H](CO)[C@@H](O)[C@H]1O`, for which the Differentiation in experiment [1] was 3%. In addition, in experiment [2], the IC50 was greater than 8000 µM. In experiment [3], this compound showed an Optimal concentration of 8 mM.

In experiment [1], `OC[C@H]1O[C@@H](n2cnc3c(O)ncnc32)[C@@H](O)[C@@H]1O` showed a Differentiation of 82%. The IC50 in experiment [2] was found to be 600 µM. The Optimal concentration in experiment [3] came to 0.2 mM.

In the case of `CSc1ncnc2c1ncn2[C@@H]1O[C@H](CO)[C@@H](O)[C@H]1O`, the Differentiation in experiment [1] is listed as 51%. Moreover, the IC50 in experiment [2] amounted to 7 µM. The compound also displayed an Optimal concentration in experiment [3] of 0.005 mM.

As to `[N-]=[N+]=N[C@H]1[C@H](O)[C@@H](CO)O[C@H]1n1cnc2c(O)ncnc21`, the Differentiation in experiment [1] is on record as 40%. Further, the IC50 in experiment [2] is 6000 µM. The compound also had an Optimal concentration in experiment [3] of 2 mM.

The compound `C[S+](C)[O-]` [DIMETHYL SULFOXIDE] displayed a Differentiation in experiment [1] of 70%. For the same compound, the Optimal concentration in experiment [3] is 200 mM.

Regarding `Nc1ncnc2c1ncn2[C@@H]1O[C@H](CO)[C@@H](O)[C@H]1O` [ADENOSINE], the figures for the Differentiation in experiment [1] and in experiment [7] were 3% and 2%, respectively. Further, the IC50 is 50 µM in experiment [5] and greater than 4000 µM in experiment [2]. The Optimal concentration in experiment [6] is 0.04 mM; in experiment [3] it was 4 mM.

In turn, `OC[C@H]1O[C@@H](n2c(Br)nc3c(O)ncnc32)[C@@H](O)[C@@H]1O` yielded a Differentiation in experiment [1] of 1%. The IC50 in experiment [2] was greater than 2500 µM. The compound further had an Optimal concentration in experiment [3] of 4 mM.

With `O=c1[nH]c(=O)c2nc(OCc3ccccc3)n(C3O[C@H](CO)[C@@H](O)[C@H]3O)c2[nH]1` (stereo partly specified), the Differentiation in experiment [1] is 6%. In addition, the IC50 in experiment [2] was greater than 7000 µM. For the same compound, in experiment [3], the Optimal concentration is 7 mM.

Compound `O=c1[nH]c(=O)c2nc(Br)n(C3O[C@H](CO)[C@@H](O)[C@H]3O)c2[nH]1` (stereo partly specified) returned a Differentiation in experiment [1] of 1%. Also, in experiment [2], the IC50 was greater than 7000 µM. In experiment [3], this compound had an Optimal concentration of 7 mM.

`Nc1ncnc2c1nc(Br)n2[C@@H]1O[C@H](CO)[C@@H](O)[C@H]1O`: the Differentiation in experiment [1] and in experiment [8] was 1% each time. The IC50 in experiment [5] and in experiment [2] was greater than 1000 µM each time. Further, the Optimal concentration in experiment [6] and in experiment [3] was 1 mM in each case.

As for `OC[C@H]1O[C@@H](n2cnc3c(S)ncnc32)[C@H](O)[C@@H]1O` [THIOINOSINE], the Differentiation in experiment [1] was 51%. Moreover, the IC50 in experiment [2] was greater than 2000 µM. Also, in experiment [3], the Optimal concentration amounted to 1 mM.

Take `OC[C@H]1OC(n2c(S)nc3c(O)ncnc32)[C@H](O)[C@@H]1O` (stereo partly specified): in experiment [1], the Differentiation was found to be 1%. In experiment [2], the IC50 was greater than 4000 µM. For the same compound, the Optimal concentration in experiment [3] is reported as 4 mM.

In experiment [1], `O=c1[nH]cnc2c1ncn2[C@@H]1O[C@H](CO)[C@@H](O)[C@H]1O` [INOSINE] gave a Differentiation of 12%. For the same compound, the IC50 in experiment [2] is greater than 7000 µM. Also, in experiment [3], the Optimal concentration is listed as 7 mM.

In experiment [1], `Nc1nc2c(O)ncnc2n1[C@@H]1O[C@H](CO)[C@@H](O)[C@@H]1O` showed a Differentiation of 6%. In experiment [2], the IC50 is greater than 5000 µM. In addition, in experiment [3], the Optimal concentration was 4 mM.

The compound `OC[C@H]1O[C@@H](n2cnc3c(S)ncnc32)[C@@H](O)[C@@H]1O` came in with a Differentiation in experiment [1] of 56%. Moreover, the IC50 in experiment [2] came out at 110 µM. The compound further came in with an Optimal concentration in experiment [3] of 0.02 mM.

On to `CSc1ncnc2c1ncn2[C@@H]1O[C@H](CO)[C@@H](O)[C@@H]1O`, for which the Differentiation in experiment [1] was determined as 49%. In experiment [2], the IC50 was greater than 3000 µM. In addition, in experiment [3], the Optimal concentration is 1.5 mM.

In the case of `OC[C@H]1O[C@@H](n2cnc3c(NO)ncnc32)[C@@H](O)[C@@H]1O`, the Differentiation in experiment [1] came out at 74%; in experiment [8], 20%. Besides, the IC50 in experiment [5] was found to be 69 µM; in experiment [2], 540 µM. In addition, the Optimal concentration is 0.04 mM in experiment [6] and 0.2 mM in experiment [3].
